The source of these data is ChEMBL document CHEMBL4334438, “Discovery of novel glycogen synthase kinase-3α inhibitors: Structure-based virtual screening, preliminary SAR and biological evaluation for treatment of acute myeloid leukemia” (Eur J Med Chem, 2019).

For test [1], the target named is Serine/threonine-protein kinase B-raf (Homo sapiens) (UniProt P15056). Briefly: Inhibition of recombinant full length human B-Raf (416 to end residues) assessed as residual activity at 1 uM using myelin basic protein substrate incubated for 40 mins in presence of [gamma-33ATP] by scintillation counting based radiometry assay relative to control.
For test [2], the species on record is Homo sapiens. Briefly: Inhibition of recombinant human Plk4 S34T mutant (1 to 273 residues) assessed as residual activity at 1 uM using casein as substrate measured after 40 mins in presence of [gamma33P]ATP by scintillation counting method relative to control.
For test [3], the target named is Mitogen-activated protein kinase kinase kinase kinase 3 (Homo sapiens) (UniProt Q8IVH8). The test can be described thus: Inhibition of recombinant human MAP4K3 (1 to 291 residues) assessed as residual activity at 1 uM using RLGRDKYKTLRQIRQ as substrate incubated for 40 mins in presence of [gamma-33ATP by scintillation counting based radiometry assay relative to control.

Test [4] addresses Dual specificity protein kinase CLK1 (Homo sapiens) (UniProt P49759). The test can be described thus: Inhibition of recombinant human CLK1 (130 to end residues) assessed as residual activity at 1 uM using ERMRPRKRQGSVR as substrate incubated 40 mins in presence of [gamma-33ATP] by scintillation counting based radiometry assay relative to control.
The target of test [5] is Casein kinase I isoform gamma-1 (Homo sapiens) (UniProt Q9HCP0). Briefly: Inhibition of recombinant human CK1gamma1 (25 to 355 residues) assessed as residual activity at 1 uM using KRRRALS(p)VASLPGL as substrate measured after 40 mins in presence of [gamma33P]ATP by scintillation counting method.
Test [6] concerns the target Inhibitor of nuclear factor kappa-B kinase subunit epsilon (Homo sapiens) (UniProt Q14164). The test can be described thus: Inhibition of full length human IKKepsilon assessed as residual activity at 1 uM using casein as substrate after 40 mins by [gamma-33ATP] radiometric assay relative to control.
Test [7] has as its target NUAK family SNF1-like kinase 2 (Homo sapiens) (UniProt Q9H093). Briefly: Inhibition of recombinant human full length NUAK2 assessed as residual activity at 1 uM using KKKVSRSGLYRSPSMPENLNRPR as substrate measured after 40 mins in presence of [gamma33P]ATP by scintillation counting method relative to control.
For test [8], the target named is Serine/threonine-protein kinase MARK2 (Homo sapiens) (UniProt Q7KZI7). The test can be described thus: Inhibition of recombinant full-length human PAR1Balpha assessed as residual activity at 1 uM using KKKVSRSGLYRSPSMPENLNRPR as substrate measured after 40 mins in presence of [gamma33P]ATP by scintillation counting method relative to control.
Test [9] has as its target Mast/stem cell growth factor receptor Kit (Homo sapiens) (UniProt P10721). The test can be described thus: Inhibition of recombinant human c-Kit (544 to end residues) assessed as residual activity at 1 uM using poly(Glu, Tyr) 4:1 as substrate measured after 40 mins in presence of [gamma33P]ATP by scintillation counting method.
For test [10], the system named is Serine/threonine-protein kinase N1 (Homo sapiens), Q16512 [V901I]. The test can be described thus: Inhibition of recombinant human PRK1 V901I mutant (498 to end residues) assessed as residual activity at 1 uM using KKLNRTLSFAEPG as substrate measured after 40 mins in presence of [gamma33P]ATP by scintillation counting method relative to control.
For test [11], the target named is CDK2/Cyclin A1 (Homo sapiens) (UniProt P24941+P78396). Briefly: Inhibition of recombinant full length human CDK2/CyclinA assessed as residual activity at 1 uM using Histone H1 as substrate incubated for 40 mins in presence of [gamma-33ATP] by scintillation counting based radiometry assay relative to control. In kind it is protein-complex assay.
Test [12] has as its target Homeodomain-interacting protein kinase 4 (Homo sapiens) (UniProt Q8NE63). Briefly: Inhibition of human HIPK4 assessed as residual activity at 1 uM using RRRFRPASPLRGPPK as substrate after 40 mins by [gamma-33ATP] radiometric assay relative to control.
The test system of test [13] is Hepatocyte growth factor receptor (Homo sapiens), P08581 [D1228H]. The test can be described thus: Inhibition of recombinant human MET A1209G/V1290L/D1246H mutant (974 to end residues) assessed as residual activity at 1 uM using KKKGQEEEYVFIE as substrate incubated for 40 mins in presence of [gamma-33ATP by scintillation counting based radiometry assay relative to control.

The target of test [14] is NUAK family SNF1-like kinase 1 (Homo sapiens) (UniProt O60285). The test can be described thus: Inhibition of recombinant human ARK5 (2 to end residues) assessed as residual activity at 1 uM using KKKVSRSGLYRSPSMPENLNRPR as substrate incubated for 40 mins in presence of [gamma-33ATP] by scintillation counting based radiometry assay relative to control.
Test [15] has as its target Serine/threonine-protein kinase 3 (Homo sapiens) (UniProt Q13188). Briefly: Inhibition of recombinant full-length human MST2 (2 to end residues) assessed as residual activity at 1 uM using myelin basic protein as substrate measured after 40 mins in presence of [gamma33P]ATP by scintillation counting method relative to control.
The target in test [16] is Proto-oncogene tyrosine-protein kinase Src (Homo sapiens) (UniProt P12931). Briefly: Inhibition of recombinant human C-Src assessed as residual activity at 1 uM KVEKIGEGTYGVV as substrate incubated 40 mins in presence of [gamma-33ATP] by scintillation counting based radiometry assay relative to control.
Test [17] addresses Protein kinase C beta type (Homo sapiens) (UniProt P05771). Briefly: Inhibition of recombinant human PKCbeta2 (2 to end residues) assessed as residual activity at 1 uM using histone H1 as substrate measured after 40 mins in presence of [gamma33P]ATP by scintillation counting method relative to control.
Test [18] concerns the target Tyrosine-protein kinase Fes/Fps (Homo sapiens) (UniProt P07332). The test can be described thus: Inhibition of recombinant human FES (2 to end residues) assessed as residual activity at 1 uM using poly(Glu, Tyr) 4:1 as substrate at 40 mins in presence of [gamma-33ATP] by scintillation counting based radiometry assay relative to control.
Test [19] deals with Serine/threonine-protein kinase SIK1 (Homo sapiens) (UniProt P57059). Briefly: Inhibition of recombinant human SIK (1 to 281 residues) assessed as residual activity at 1 uM using AMARAASAAALARRR as substrate measured after 40 mins in presence of [gamma33P]ATP by scintillation counting method assay relative to control.
For test [20], the target named is Myosin-IIIb (Homo sapiens) (UniProt Q8WXR4). Briefly: Inhibition of recombinant human MYO3B (1 to 306 residues) assessed as residual activity at 1 uM using RLGRDKYKTLRQIRQ as substrate measured after 40 mins in presence of [gamma33P]ATP by scintillation counting method relative to control.
The species entered for test [21] is Homo sapiens. Briefly: Inhibition of recombinant full length human PRAK R291E mutant assessed as residual activity at 1 uM using KKLRRTLSVA as substrate measured after 40 mins in presence of [gamma33P]ATP by scintillation counting method relative to control.

Protein kinase C beta type (Homo sapiens), sequence (P05771 2-671 limits assumed): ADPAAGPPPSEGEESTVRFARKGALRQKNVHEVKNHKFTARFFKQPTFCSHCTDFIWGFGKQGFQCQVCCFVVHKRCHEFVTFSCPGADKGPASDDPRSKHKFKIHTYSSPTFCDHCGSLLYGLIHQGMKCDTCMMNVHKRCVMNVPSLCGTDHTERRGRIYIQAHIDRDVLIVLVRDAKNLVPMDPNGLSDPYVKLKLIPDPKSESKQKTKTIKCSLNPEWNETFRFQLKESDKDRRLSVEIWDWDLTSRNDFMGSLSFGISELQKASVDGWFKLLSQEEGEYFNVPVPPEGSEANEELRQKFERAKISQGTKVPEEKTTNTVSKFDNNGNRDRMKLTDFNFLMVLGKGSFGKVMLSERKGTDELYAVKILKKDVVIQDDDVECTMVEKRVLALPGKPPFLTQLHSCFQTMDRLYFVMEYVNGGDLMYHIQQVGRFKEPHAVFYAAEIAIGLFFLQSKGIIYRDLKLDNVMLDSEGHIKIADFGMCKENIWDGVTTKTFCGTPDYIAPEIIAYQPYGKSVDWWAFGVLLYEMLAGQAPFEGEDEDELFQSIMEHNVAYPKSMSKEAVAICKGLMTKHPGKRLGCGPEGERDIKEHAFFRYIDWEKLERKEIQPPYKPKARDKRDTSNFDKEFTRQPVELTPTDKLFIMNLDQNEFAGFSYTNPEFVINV
Homeodomain-interacting protein kinase 4 (Homo sapiens), sequence (Q8NE63 whole entry): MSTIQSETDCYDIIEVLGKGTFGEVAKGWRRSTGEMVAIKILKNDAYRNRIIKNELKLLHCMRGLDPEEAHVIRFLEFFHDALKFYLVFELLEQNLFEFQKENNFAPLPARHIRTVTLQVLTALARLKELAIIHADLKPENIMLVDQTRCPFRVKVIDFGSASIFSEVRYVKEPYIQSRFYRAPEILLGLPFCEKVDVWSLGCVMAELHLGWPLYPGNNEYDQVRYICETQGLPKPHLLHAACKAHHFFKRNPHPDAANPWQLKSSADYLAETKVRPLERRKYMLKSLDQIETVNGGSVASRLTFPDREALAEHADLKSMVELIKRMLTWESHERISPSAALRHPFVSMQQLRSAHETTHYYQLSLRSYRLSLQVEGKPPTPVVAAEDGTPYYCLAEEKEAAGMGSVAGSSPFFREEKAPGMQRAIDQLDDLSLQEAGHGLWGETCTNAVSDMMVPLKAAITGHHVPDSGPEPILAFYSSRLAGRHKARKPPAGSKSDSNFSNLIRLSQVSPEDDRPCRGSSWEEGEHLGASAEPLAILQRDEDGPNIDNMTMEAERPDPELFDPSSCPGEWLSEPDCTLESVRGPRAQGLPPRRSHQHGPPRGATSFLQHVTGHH
Dual specificity protein kinase CLK1 (Homo sapiens), sequence (P49759 whole entry, looked up, the tested form may be a part, canonical isoform): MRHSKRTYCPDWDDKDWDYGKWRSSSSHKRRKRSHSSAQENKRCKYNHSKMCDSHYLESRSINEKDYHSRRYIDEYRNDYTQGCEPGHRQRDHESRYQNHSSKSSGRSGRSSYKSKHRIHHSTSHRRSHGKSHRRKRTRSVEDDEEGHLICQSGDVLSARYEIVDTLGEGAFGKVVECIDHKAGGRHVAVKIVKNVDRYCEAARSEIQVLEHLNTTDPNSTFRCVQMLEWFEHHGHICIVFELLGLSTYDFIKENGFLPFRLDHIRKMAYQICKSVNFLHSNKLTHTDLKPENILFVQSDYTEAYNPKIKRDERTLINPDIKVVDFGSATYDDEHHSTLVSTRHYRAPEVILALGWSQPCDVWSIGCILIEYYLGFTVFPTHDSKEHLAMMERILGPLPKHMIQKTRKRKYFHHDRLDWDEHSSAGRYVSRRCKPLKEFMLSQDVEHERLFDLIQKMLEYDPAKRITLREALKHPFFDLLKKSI
Mast/stem cell growth factor receptor Kit (Homo sapiens), sequence (P10721 whole entry): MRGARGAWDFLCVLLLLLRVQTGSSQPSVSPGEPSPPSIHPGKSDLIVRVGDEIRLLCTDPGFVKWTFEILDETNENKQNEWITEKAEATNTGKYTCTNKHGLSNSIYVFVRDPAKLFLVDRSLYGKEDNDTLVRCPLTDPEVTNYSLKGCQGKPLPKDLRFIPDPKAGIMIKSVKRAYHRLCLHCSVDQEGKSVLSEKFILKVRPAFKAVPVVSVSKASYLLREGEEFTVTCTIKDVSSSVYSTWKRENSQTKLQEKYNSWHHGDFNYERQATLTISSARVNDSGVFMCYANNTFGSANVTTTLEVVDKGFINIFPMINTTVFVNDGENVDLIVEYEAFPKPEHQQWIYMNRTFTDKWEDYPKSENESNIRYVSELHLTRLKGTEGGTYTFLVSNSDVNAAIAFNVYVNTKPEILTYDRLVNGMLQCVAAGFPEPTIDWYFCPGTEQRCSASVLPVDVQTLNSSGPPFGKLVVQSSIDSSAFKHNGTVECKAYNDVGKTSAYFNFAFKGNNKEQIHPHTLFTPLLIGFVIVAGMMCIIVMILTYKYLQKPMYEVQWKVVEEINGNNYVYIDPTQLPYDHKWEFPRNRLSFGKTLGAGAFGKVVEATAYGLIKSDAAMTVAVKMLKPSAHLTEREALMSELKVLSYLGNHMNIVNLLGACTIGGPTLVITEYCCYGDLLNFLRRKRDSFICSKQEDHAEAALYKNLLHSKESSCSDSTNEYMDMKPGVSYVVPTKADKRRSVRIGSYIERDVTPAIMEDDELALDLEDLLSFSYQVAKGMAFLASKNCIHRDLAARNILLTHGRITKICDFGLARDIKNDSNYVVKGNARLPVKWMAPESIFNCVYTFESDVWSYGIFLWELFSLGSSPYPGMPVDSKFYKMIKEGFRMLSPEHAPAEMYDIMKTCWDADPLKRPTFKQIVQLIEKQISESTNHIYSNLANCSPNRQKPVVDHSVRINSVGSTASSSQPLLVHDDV
Tyrosine-protein kinase Fes/Fps (Homo sapiens), sequence (P07332 whole entry, the tested form may be a part): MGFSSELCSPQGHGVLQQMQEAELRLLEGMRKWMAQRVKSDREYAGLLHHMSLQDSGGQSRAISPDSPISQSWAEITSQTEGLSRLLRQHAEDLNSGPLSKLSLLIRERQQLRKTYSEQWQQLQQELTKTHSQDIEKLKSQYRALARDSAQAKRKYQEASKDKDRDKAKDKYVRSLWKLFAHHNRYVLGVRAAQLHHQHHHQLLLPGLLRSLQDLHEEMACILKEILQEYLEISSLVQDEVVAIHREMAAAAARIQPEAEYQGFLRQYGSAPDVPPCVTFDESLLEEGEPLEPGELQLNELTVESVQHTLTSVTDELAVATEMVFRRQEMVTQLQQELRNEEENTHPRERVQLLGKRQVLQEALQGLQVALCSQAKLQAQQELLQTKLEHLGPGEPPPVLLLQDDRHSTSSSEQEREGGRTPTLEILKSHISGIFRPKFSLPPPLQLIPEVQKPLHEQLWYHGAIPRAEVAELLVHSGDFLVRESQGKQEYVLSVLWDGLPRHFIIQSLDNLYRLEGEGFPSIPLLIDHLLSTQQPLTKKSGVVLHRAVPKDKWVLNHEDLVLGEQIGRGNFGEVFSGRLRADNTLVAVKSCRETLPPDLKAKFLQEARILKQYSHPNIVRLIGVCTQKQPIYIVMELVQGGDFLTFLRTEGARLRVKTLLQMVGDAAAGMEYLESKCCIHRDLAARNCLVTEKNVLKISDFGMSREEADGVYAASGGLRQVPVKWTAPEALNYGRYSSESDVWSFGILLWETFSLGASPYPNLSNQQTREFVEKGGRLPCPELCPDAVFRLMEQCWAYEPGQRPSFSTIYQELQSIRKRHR
Serine/threonine-protein kinase B-raf (Homo sapiens), sequence (P15056 whole entry, the tested form may be a part): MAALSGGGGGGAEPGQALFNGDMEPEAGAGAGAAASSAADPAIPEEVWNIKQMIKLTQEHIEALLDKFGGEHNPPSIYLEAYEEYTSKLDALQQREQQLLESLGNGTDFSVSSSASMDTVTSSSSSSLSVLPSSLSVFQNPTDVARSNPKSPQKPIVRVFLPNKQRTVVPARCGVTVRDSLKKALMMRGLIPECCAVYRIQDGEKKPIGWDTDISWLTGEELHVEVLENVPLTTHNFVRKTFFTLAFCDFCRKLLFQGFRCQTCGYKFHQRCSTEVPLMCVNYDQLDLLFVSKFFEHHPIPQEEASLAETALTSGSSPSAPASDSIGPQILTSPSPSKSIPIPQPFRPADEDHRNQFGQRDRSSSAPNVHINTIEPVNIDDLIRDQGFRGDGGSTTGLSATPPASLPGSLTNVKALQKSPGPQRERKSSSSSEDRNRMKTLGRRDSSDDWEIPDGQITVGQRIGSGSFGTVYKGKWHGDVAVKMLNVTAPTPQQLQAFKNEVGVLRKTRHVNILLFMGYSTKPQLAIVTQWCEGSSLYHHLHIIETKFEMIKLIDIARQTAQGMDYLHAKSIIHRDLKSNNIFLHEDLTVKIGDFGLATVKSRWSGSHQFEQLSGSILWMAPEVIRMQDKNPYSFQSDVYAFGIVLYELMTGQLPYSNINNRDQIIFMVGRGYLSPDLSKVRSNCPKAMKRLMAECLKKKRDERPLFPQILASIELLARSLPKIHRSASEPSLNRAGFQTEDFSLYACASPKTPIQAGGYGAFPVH
NUAK family SNF1-like kinase 2 (Homo sapiens), sequence (Q9H093 whole entry): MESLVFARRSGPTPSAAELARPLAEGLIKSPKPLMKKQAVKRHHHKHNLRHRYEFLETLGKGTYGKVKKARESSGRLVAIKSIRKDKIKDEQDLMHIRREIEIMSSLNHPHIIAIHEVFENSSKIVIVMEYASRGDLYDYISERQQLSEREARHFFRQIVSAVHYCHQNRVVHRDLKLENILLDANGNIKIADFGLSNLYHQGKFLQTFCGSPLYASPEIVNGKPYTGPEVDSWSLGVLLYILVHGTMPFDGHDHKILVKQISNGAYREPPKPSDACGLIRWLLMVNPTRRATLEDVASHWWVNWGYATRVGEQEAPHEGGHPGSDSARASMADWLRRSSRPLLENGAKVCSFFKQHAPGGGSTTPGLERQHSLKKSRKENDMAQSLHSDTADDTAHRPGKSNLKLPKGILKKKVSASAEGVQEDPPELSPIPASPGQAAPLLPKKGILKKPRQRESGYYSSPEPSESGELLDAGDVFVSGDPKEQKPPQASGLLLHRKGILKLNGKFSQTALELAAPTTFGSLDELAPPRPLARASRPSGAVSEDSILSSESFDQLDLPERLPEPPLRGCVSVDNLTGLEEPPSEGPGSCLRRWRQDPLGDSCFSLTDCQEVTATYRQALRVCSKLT

As for `N=C1NC(=O)/C(=C\c2ccc(-c3cccc([N+](=O)[O-])c3)o2)S1`, the Activity amounted to 97% in test [1]; 83% in the test listed under Homo sapiens [2]; 102% in [3]; 50% in [4]; 101% in test [5]; 100% in test [6]. The Activity in test [7] turned out to be 95%; in test [8] it was 105%; in test [9], 112%; in test [10], 90%; in test [11], 61%; in test [12], 92%. The Activity in test [13] is 92%; in test [14], 99%; in test [15], 98%; in [16], 82%; in test [17], 92%; in test [18], 103%. The Activity stood at 105% in test [19], 98% in [20] and 71% in the test filed under Homo sapiens [21].
`C=CCOC(=O)c1cc(-c2ccc(/C=C3/NC(=S)NC3=O)o2)ccc1Cl`: the Activity in test [1] turned out to be 90%; in the test filed under Homo sapiens [2] it was 91%; in test [3] it was 99%; in test [4], 26%; in [5], 101%; in test [6] it was 98%. Moreover, the Activity in test [7] turned out to be 111%; in test [8] it was 95%; in test [9] it was 101%; in test [10] it was 98%; in [11] it was 54%; in [12], 97%. Also, the Activity in test [13] was determined as 110%; in test [14], 79%; in [15], 92%; in [16], 79%; in test [17] it was 100%; in test [18] it was 91%. Besides, the Activity in [19] was 107%; in test [20], 105%; in the test listed under Homo sapiens [21], 82%.
